Measured values as given in patent US10179770B2, “Quinolines derivatives as novel anticancer agents” (GENOSCIENCE PHARMA, priority 2013, dated 2019).

What was measured:
[1] = tested on: ALDH+ cancer stem cells (CSC) in MOLM-14 cell line; assay: Aldefluor kit assay, ALDH+ compartment analysis; type: cell-based, human; conditions: for Aldefluor™ positive CSCs (% of control) / Activity against CSCs in Aldefluor™ assay (proportion of CSCs): MOLM-14; for Aldefluor™ positive CSCs (% of control): 72 h; for Activity against CSCs in Aldefluor™ assay (proportion of CSCs): dose dependent, Cytarabine up to 3-fold its EC50; for Aldefluor positive CSCs (% of control): MOLM-14 cell line, 72 h incubation
Source text: Analysis of the of aldehyde dehydrogenase (ALDH) compartment and high activity level of aldehyde dehydrogenase activity (ALDH+) was used to detect tumor initiating cells (cancer stem cells, CSC) population. The Aldefluor™ kit assay (StemCell Technologies) allowed to assess the activity of drugs on CSC cells like in aa MOLM-14 acute myeloid leukemia cell line population. The Aldefluor™ kit assay was used according to the procedure described by the manufacturer. Briefly, MOLM-14 cell line was cultured in RPMI-1640 Medium supplemented with 10% v/v Fetal Bovine Serum (FBS), 1% Penicillin-Streptomycin and maintained at 37° C. with 5% CO2. 5·10^5 cells were used in this assay. Each compound was added at different concentrations (see table 13 and 14), and cell cultures were incubated for 72 h. Vehicle (H2O) was used as a control, and all compounds were tested in a constant percentage of vehicle. Cells obtained from cell culture were incubated for 45 minutes at 37° C. with Aldefluor™ buffer assay containing the Bodipy™-aminoacetaldehyde (BAAA), a fluorescent ALDH aldehyde substrate. ALDH converts the fluorescent substrate BAAA to the Bodipy™-aminoacetic acid (BAA) which is retained in the cell. An active efflux inhibitor is present in the Adelfluor™ assay buffer in order to avoid the active efflux from the cell of the substrate product ALDH dependent converted BAA. The fluorescent signal is directly proportional to the ALDH activity in the cells and is measured by flow cytometry. A negative control is used to measure the background fluorescence level. For such purpose, 4-(N,N-diethylamino)-benzaldehyde (DEAB) was used as selective ALDH inhibitor. A viability cell count was performed using LIVE/DEAD® Fixable Far Red Dead Cell Stain Kit (Invitrogen). The experimental data are analyzed using a computer program, Graphpad Prism (GraphPad Software, Inc. La Jolla, Calif.) and EC50 values were determined as the dose of compound required to reduce absorbance values to 50% of the signal obtained for vehicle treated cell cultures.

U87-MG = assay: CellTiter 96 Aqueous One Solution (MTS) cell proliferation assay; type: cell-based; conditions: Homo sapiens, U-87 MG; U87-MG (Glioma); Cell Titer 96 Aqueous One Solution; 72 h; mean of seven independent triplicate assays
Protocol: The human glioblastoma cell line U87-MG was cultured in Minimum Essential Medium (Life Invitrogen, 31095029) supplemented with 10% fetal bovine serum (GIBCO, 10500-056) and 1 % penicillin-streptomycin (GIBCO, 15140-122). Flasks and plated used for the cell culture were coated with 25 μg/mL poly-D-lysine (Sigma, P7280).
Cell outgrowth was measured using a tetrazolium compound (3-[4,5-dimethylthiazol-2-yl]-5-[3-carboxymethoxyphenyl]-2-[4-sulfophenyl]-2H tetrazolium, inner salt [MTS]) from the CellTiter 96® Aqueous One Solution Cell Proliferation Assay (Promega, Ref G3580) and according to the manufacturer procedure.
5000 cells were plated onto 96-well plates in 100 μL of media per well and were allowed to grow overnight before the assay. Compounds were added at different concentrations to each well, and cell cultures were incubated for 72 h. Control compound was the diluent used for compound resuspension (H2O). After addition of 20 μL of CellTiter 96® Aqueous One Solution, absorbance at 492 nm was measured using a microplate reader Sunrise (Tecan). EC50 values were determined as the dose of compound required to reduce […] values to 50% of the signal obtained for untreated cell cultures. […] The experimental data are analyzed using a computer program, Graphpad Prism (GraphPad Software, Inc. La Jolla, Calif.).

SK-MEL-28 cell line = assay: Combination of XIX-3 and Zelboraf, Bliss independence model; type: cell-based, human; conditions: XIX-3 associated with Zelboraf, 72 h
Protocol: The human melanoma cell line SK-MEL-28 was cultured in Minimum Essential Medium (MEM) supplemented with 10% Fetal Bovine Serum and 1% Penicillin-Streptomycin and maintained at 37° C. with 5% CO2.
SK-MEL-28 cells were plated at 2,500 cells per well onto 96-well plates in 90 μL of media per well and were allowed to grow overnight before the assay. XIX-3 and Zelboraf, a compound used for treatment for BRAF V600E mutation-positive metastatic melanoma, were added at different concentrations (combinations of five concentrations of XIX-3 and six concentrations of Zelboraf) to each well, and cell cultures were incubated for 72 h. […] Cell outgrowth was measured using a […] Aqueous One Solution Cell Proliferation Assay (Promega) and a TECAN Sunrise plate reader.
(§1) In each experiment, each point represents the average of triplicates in cell culture. The effects of drug-drug combinations are evaluated in the Bliss independence model (Prichard M. N. and Shipman C. Jr. Antivir. Res. 1990 (14) 181-205; Prichard, M. L. et al. Antimicrob Agents Chemother 1993 (37) 540-545). The theoretical additive effect is calculated from the dose-response curves of individual compounds by the equation: Z=X+Y(1−X) (7) Where: • Z represents the total inhibition produced by the combination of drugs X and Y. • X and Y represent the inhibition produced by drugs X and Y alone, respectively. […]

MOLM-14 cell line = assay: Combination of XXIV-3 and Cytarabine, Bliss independence model; type: cell-based, human; conditions: XXIV-3 associated with Cytarabine, 72 h
Protocol: The human leukemia cell line MOLM-14 was cultured in Minimum Essential Medium Alpha Medium (MEM) supplemented with 10% Fetal Bovine Serum (FBS) and 1% Penicillin-Streptomycin and maintained at 37° C. with 5% CO2. 30,000 cells in 180 μL of MEM 5% FBS 1% P/S were plated onto 96-well plates immediately before the assay. Compounds were added at different concentrations (combinations of five concentrations of XXIV-3 and six concentrations of Cytarabine) to each well, and cell cultures were incubated for 72 h. Vehicle (H2O) was used as a control, and all compounds were tested in a constant percentage of vehicle. Cell outgrowth was measured using the CellTiter-Glo luminescent cell viability assay as described by the manufacturer (Promega, Ref G7571 Madison, Wis., USA) using an Infinite F200 Pro TECAN plate reader. […]
as §1, with “The” for “In each experiment, each point represents the average of triplicates in cell culture. The”, “1993(37)” for “1993 (37)”

Compound	Aldefluor™ positive CSCs (% of control) ([1]; 5 μM)	Aldefluor™ positive CSCs (% of control) ([1]; 10 μM)	Aldefluor™ positive CSCs (% of control) ([1]; 20 μM)	Aldefluor™ positive CSCs (% of control) ([1]; 40 μM)	Activity against CSCs in Aldefluor™ assay (proportion of CSCs) [1]	EC50 (U87-MG) [µM]	Combination effect on cell viability (Bliss independence model) (SK-MEL-28 cell line)	Combination effect on cell viability (Bliss independence model) (MOLM-14 cell line)	Aldefluor positive CSCs (% of control) ([1]; 5 μM)	Aldefluor positive CSCs (% of control) ([1]; 10 μM)	Aldefluor positive CSCs (% of control) ([1]; 20 μM)	Aldefluor positive CSCs (% of control) ([1]; 40 μM)
CCN(CC)C1CCN(C(C)c2cc(-c3ccccc3)nc3ccccc23)CC1.Cl.Cl (stereo not shown) [XIX-3, 2-phenyl-4-{1-[4-(N,N-diethylamino)piperidin-1-yl]-eth-1-yl}quinoline dihydrochloride]	86 % of control	66 % of control	42 % of control	25 % of control	reduced the proportion of CSCs	26	additive effect (between −20% to +20% indicates additive effect)	–	–	–	–	–
CCN(CC)C1CCN(C(C)c2cc(-c3ccc4ccccc4c3)nc3ccccc23)CC1.Cl.Cl (stereo not shown) [XXIV-3, 2-(2-naphtyl)-4-{1-[4-(N,N-diethylamino)-piperidin-1-yl]-eth-1-yl}quinoline dihydrochloride]	–	–	–	–	–	–	–	additive effect (between −20% to +20% indicates additive effect)	–	–	–	–
Cc1ccc(-c2cc(N3CCC(NC(C)(C)C)CC3)c3ccccc3n2)cc1.Cl.Cl [XIII-8, 2-(4-methyl-phenyl)-4-(4-N-tert-butylamino-piperidin-1-yl)quinoline dihydrochloride]	–	–	–	–	reduced the proportion of CSCs	–	–	–	84 % of control	83 % of control	58 % of control	23 % of control
